Test systems include 786-0 renal; MDA-N; KM12 colon; NCI-H226 lung; DU-145 prostate; COLO 205 colon; A549 NSCLC; SF-268 CNS; UACC-62 melanoma.
Common to all, as to test: NCI anticancer screen, dose series, 48 h

Experimental findings from PubChem BioAssay (NCI) are described below.

Where “and” joins values, the source holds several entries; their conditions need not be identical. Identical values can stand only once.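 Each compound was tested at five concentrations against cells in 96-well plates for 48 hours. At the GI50, growth is halved. TGI marks complete inhibition of growth.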 Where only a bound is given, the exact number is not on record here.

Consider `CCOC(=O)CCC(NC(=O)Cc1ccc(Oc2nc3ccccc3nc2-c2ccccc2)cc1)C(=O)OCC` (stereo not drawn), for which the TGI in the test on 786-0 renal was above 100 µM; in the test on MDA-N, above 100 µM; in the test on KM12 colon, above 100 µM; in the test on NCI-H226 lung, 78.9 µM; in the test on DU-145 prostate, above 100 µM; with COLO 205 colon, above 100 µM. For the same molecule, the TGI in the test with A549 NSCLC, in the test with SF-268 CNS and with UACC-62 melanoma was above 100 µM throughout.

Take `CC12ON(P(=O)(c3ccccc3)c3ccccc3)C(C)(c3ccccc31)c1ccccc12`: the TGI in the test on 786-0 renal, with MDA-N, with KM12 colon, in the test with NCI-H226 lung, in the test on DU-145 prostate and in the test on COLO 205 colon was above 100 µM each time. For the same molecule, the TGI with A549 NSCLC, in the test on SF-268 CNS and in the test with UACC-62 melanoma was above 100 µM each time.

On to `CN(C)CCNC(=O)c1ccc(Cl)c2cc3ccccc3nc12`, for which the TGI with 786-0 renal is 5.61 µM; in the test with MDA-N, 2.21 µM; with KM12 colon, 11.4 µM; in the test on NCI-H226 lung, 4.7 µM; in the test with DU-145 prostate, 6.2 µM; in the test with COLO 205 colon it was 1.64 µM. Also, the TGI was determined as 3.08 µM in the test on A549 NSCLC, 5.05 µM with SF-268 CNS and 2.85 µM with UACC-62 melanoma.

With `COc1c(C)c(C/C=C(\C)CC/C=C(\C)CC/C=C(\C)CCC=C(C)C)c(OC)c2ccccc12`, the TGI in the test with 786-0 renal, in the test with MDA-N, with KM12 colon, in the test on DU-145 prostate, with COLO 205 colon and in the test on A549 NSCLC was above 100 µM each time. In addition, the TGI in the test with SF-268 CNS and in the test with UACC-62 melanoma was above 100 µM each time.

Turning to `CCCC(=O)NC(Nc1ccc(F)cc1)(C(F)(F)F)C(F)(F)F`, the TGI was above 100 µM with 786-0 renal; above 100 µM in the test with MDA-N; above 100 µM in the test with KM12 colon; above 100 µM in the test with NCI-H226 lung; above 100 µM with DU-145 prostate; above 92.8 µM in the test on COLO 205 colon. Also, the TGI in the test on A549 NSCLC, in the test with SF-268 CNS and in the test with UACC-62 melanoma was above 100 µM throughout.

As for `CN[C@@H](C)[C@@H](O)c1ccccc1`, the TGI in the test on 786-0 renal, in the test on MDA-N, in the test with KM12 colon, in the test with NCI-H226 lung, in the test with DU-145 prostate and in the test on COLO 205 colon was above 100 µM in each case. Also, the TGI with A549 NSCLC and with SF-268 CNS was above 100 µM throughout.

Regarding `COC([C@@H](OC(=O)c1ccccc1)[C@H](OC(=O)c1ccccc1)C(O)COC(=O)c1ccccc1)n1cc(C)c(=O)[nH]c1=O` (stereo partly drawn), the TGI in the test on 786-0 renal is 77 µM; in the test on MDA-N, above 100 µM; in the test on NCI-H226 lung it was 74.5 µM; with DU-145 prostate it was above 100 µM; with COLO 205 colon, 51.9 µM; with A549 NSCLC, above 100 µM. Further, the TGI in the test with SF-268 CNS is above 100 µM; with UACC-62 melanoma, 56.3 µM.

As for `CN(Cc1cnc2nc(N)nc(N)c2n1)c1ccc(C(=O)NC(CCC(=O)NC(CC(P(=O)(O)O)P(=O)(O)O)C(=O)O)C(=O)O)cc1` (stereo not drawn), the TGI with 786-0 renal, in the test on MDA-N, in the test with NCI-H226 lung, in the test on DU-145 prostate, with COLO 205 colon and in the test on A549 NSCLC was above 100 µM in each case. In addition, the TGI in the test on SF-268 CNS and with UACC-62 melanoma was above 100 µM throughout.

Consider `Cc1c2ccccc2c(C)n2c1nc1ccccc12`, for which the TGI with 786-0 renal is 25.9 µM; in the test with MDA-N, 25 µM; with KM12 colon it was 23.3 µM; with NCI-H226 lung, 37.8 µM; in the test with DU-145 prostate, above 100 µM; in the test with A549 NSCLC, 23.2 µM. Also, the TGI in the test with SF-268 CNS came out at 30 µM; with UACC-62 melanoma it was 23.5 µM.

Turning to `COc1ccc(CNc2nc3cc(C(F)(F)F)ccc3nc2-c2ccccc2)cc1OC`, the TGI in the test with 786-0 renal, in the test with MDA-N, with KM12 colon, with DU-145 prostate, in the test on COLO 205 colon and in the test on A549 NSCLC was above 100 µM throughout. For the same molecule, the TGI in the test with SF-268 CNS and in the test on UACC-62 melanoma was above 100 µM throughout.

In the case of `COc1cc(OC2OC(COC(=O)c3cc(O)c(O)c(O)c3)C(O)C(O)C2O)ccc1O` (stereo not drawn), the TGI in the test with 786-0 renal, in the test with MDA-N, in the test on KM12 colon, in the test with NCI-H226 lung, in the test on DU-145 prostate and with COLO 205 colon was above 100 µM each time. In addition, the TGI with A549 NSCLC and with SF-268 CNS was above 100 µM each time.

Turning to `CC(=O)NC1(C(=O)N[C@@H](Cc2ccccc2)C(=O)NC2CCCCC2)Cc2ccc3ccccc3c2-c2c(ccc3ccccc23)C1`, the TGI with 786-0 renal was above 100 µM; in the test on MDA-N, above 100 µM; in the test on KM12 colon, above 100 µM; with COLO 205 colon, 4.44 µM and 15.9 µM; with A549 NSCLC it was above 100 µM; in the test with SF-268 CNS, above 100 µM. This molecule yielded a TGI with UACC-62 melanoma above 100 µM. The GI50 with MDA-N was 5.39 µM and 15.2 µM; in the test on KM12 colon, 2.89 µM and 6.88 µM; in the test on COLO 205 colon, 2.2 µM and 5.01 µM; with A549 NSCLC it was 2.53 µM and 5.95 µM; in the test on SF-268 CNS it was 8.66 µM and 31.3 µM; with UACC-62 melanoma, 6.22 µM and 12.7 µM.

For `COc1ccc2c(c1)c1nn(CCN3CCCCC3)c3ccc4c(=O)n(CCN(C)C)c(=O)n2c4c13`, the TGI worked out at 0.059 µM with 786-0 renal; 0.117 µM in the test with MDA-N; 0.0801 µM with KM12 colon; 0.243 µM with NCI-H226 lung; 0.132 µM in the test with DU-145 prostate; 0.0497 µM in the test on A549 NSCLC. Moreover, the figures for the TGI in the test on SF-268 CNS and in the test with UACC-62 melanoma were 0.0766 µM and 0.197 µM, respectively.

As to `Cc1ccc2c(C(=O)c3c(C)n(CCN4CCOCC4)c4ccccc34)cccc2c1`, the TGI with 786-0 renal was 49 µM; with MDA-N it was 84.8 µM; in the test with KM12 colon, 57.7 µM; in the test on NCI-H226 lung it was 19.9 µM; in the test with DU-145 prostate, 94.3 µM; in the test with A549 NSCLC it was above 100 µM. The TGI in the test with SF-268 CNS was 33.8 µM; in the test on UACC-62 melanoma, 45.2 µM.

Take `CCOc1ccc(/C=C2\NC(=S)N(/C=C3\C(=O)Oc4ccccc4C3=O)C2=O)cc1`: the TGI with 786-0 renal stood at 39.5 µM; in the test with KM12 colon it was 69.2 µM; in the test with NCI-H226 lung, 45.7 µM; with DU-145 prostate, 57.7 µM; with COLO 205 colon, 43.4 µM; in the test on SF-268 CNS, 68 µM. Moreover, the TGI in the test on UACC-62 melanoma was 37.9 µM.
